Reference: PubChem BioAssay AID1329 (NMMLSC, 2008)
Active and inactive are the calls of the source. No rule for the calls is given here.

These compounds were tested against Induced myeloid leukemia cell differentiation protein Mcl-1 (Homo sapiens) (UniProt Q07820) (assay: modulators of Bim peptide binding to Mcl-1, dose response, biochemical, bead-based flow cytometry, multiplexed, human (AID 1329)). Settings: Bim peptide-Mcl-1 binding, MCF.
Induced myeloid leukemia cell differentiation protein Mcl-1 (Homo sapiens), sequence (Q07820 whole entry, looked up): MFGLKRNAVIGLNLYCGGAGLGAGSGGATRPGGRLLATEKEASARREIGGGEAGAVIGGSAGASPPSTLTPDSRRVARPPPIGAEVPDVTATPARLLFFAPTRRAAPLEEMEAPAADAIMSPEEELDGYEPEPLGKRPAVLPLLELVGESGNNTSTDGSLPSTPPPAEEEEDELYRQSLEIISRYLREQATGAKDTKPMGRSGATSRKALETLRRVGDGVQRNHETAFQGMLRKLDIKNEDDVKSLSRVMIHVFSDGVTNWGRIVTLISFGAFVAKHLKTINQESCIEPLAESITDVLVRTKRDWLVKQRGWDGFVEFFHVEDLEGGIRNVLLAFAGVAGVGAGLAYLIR
For `S=c1[nH]cc(-c2ccccc2)n1-c1ccccc1Cl`, the percent span was “inactive”. `Cn1c(N)c(C(=O)COC(=O)c2cc(-c3ccco3)nc3ccccc23)c(=O)n(C)c1=O` was tested, and the percent span was “inactive”. With `Cc1ccc(Nc2nc(CSc3nnc(-c4cccnc4)n3-c3ccccc3C)cs2)cc1` the percent span was “inactive”. In the case of `CC(C)NS(=O)(=O)c1ccc(OCC(=O)Nc2ccc(F)cc2)cc1`, the percent span is reported as “inactive”. In the case of `COC(=O)c1ccc(C)c(NC(=O)CCNC(=O)c2ccc([N+](=O)[O-])cc2)c1`, the percent span is reported as “inactive”. `O=C(Cn1cncc1-c1ccc([N+](=O)[O-])cc1)Nc1ccccc1F` was tested, and the percent span was “inactive”. `CC1(C)CC(=O)C(C=NCCN2CCN(CCc3ccccc3)CC2)=C(O)C1` was tested, and the percent span was “inactive”. With `CCOc1cc(NC(=S)NC)c(OCC)cc1NC(=O)c1ccc(OC)cc1` the percent span was “inactive”. In the case of `CN(C)c1ccc(/C=C2/SC(=O)N(CCN=C3NS(=O)(=O)c4ccccc43)C2=O)cc1`, the percent span is reported as “inactive”. In the case of `CCc1nn2cc(C(=O)c3cc(C)ccc3O)cnc2c1-c1ccc(F)cc1`, the percent span is reported as “inactive”. With `O=C1NC(=O)C(=Cc2ccc(-c3cc(Cl)ccc3[N+](=O)[O-])o2)C(=O)N1` the percent span was “inactive”. In the case of `O=C(COC(=O)c1ccccn1)NC1CCCCC1`, the percent span is reported as “inactive”. For `Cn1c(=O)[nH]c(=O)c2c1nc(N1CCOCC1)n2CCSc1nc2ccccc2[nH]1`, the percent span was “inactive”. `Cc1cc(/C=C(/C#N)C(=O)Nc2ccc(Cl)cc2)c(C)n1-c1cccnc1` was tested, and the percent span was “inactive”. `Cc1ccnc(NS(=O)(=O)c2ccc(NS(=O)(=O)c3cccs3)cc2)n1` was tested, and the percent span was “inactive”. For `CCN1CCN(c2cc(C)c3cc(NC(=S)N4CC(C)CC(C)C4)ccc3n2)CC1` (stereo unspecified), the percent span was “inactive”. With `COCCn1nnnc1CN(Cc1ccco1)Cc1cc2cc3c(cc2[nH]c1=O)OCO3` the percent span was “inactive”. `C=CCn1c(SCC(=O)Nc2ccc3c(c2)OCO3)nnc1-c1cc(Br)ccc1O` was tested, and the percent span was “inactive”. For `O=C1c2ccccc2C(=O)N1CN(C(=O)COc1ccc(Cl)cc1Cl)c1cccc(F)c1`, the percent span was “inactive”. With `Cc1ccc(/C=C2/NC(=O)N(Cc3ccc(Br)cc3)C2=O)o1` the percent span was “inactive”. `COc1ccc(NC(=O)/C(Cl)=C(/Cl)S(=O)Cc2ccccc2)cn1` (stereo unspecified) was tested, and the percent span was “inactive”. `CCOC(=O)C1=C(Cc2ccc(OC)cc2)C(=O)c2ccccc2C1=O` was tested, and the percent span was “inactive”. `CCCc1nnc2n1N=C(c1ccc(-c3cc(Cl)ccc3Cl)o1)CS2` was tested, and the percent span was “inactive”. With `Cc1cc(OCc2cn3cccnc3n2)ccc1Cl` the percent span was “inactive”. With `COC(=O)c1cccc(-n2c(C)cc(C=O)c2C)c1` the percent span was “inactive”. For `O=C(Nc1ccccc1)Nc1ccc2ncoc2c1`, the percent span was “inactive”. With `COc1cccc(/C=C2/SC(=O)N(C)C2=O)c1OCc1ccc(C(=O)O)cc1` the percent span was “inactive”. With `CCN(CC)c1ccc(NC(=O)c2ccccc2)cc1S(=O)(=O)Nc1ccccc1OC` the percent span was “inactive”. For `Clc1ccc(N=c2ssnc2Cl)nc1`, the percent span was “inactive”. In the case of `Fc1ccc(/C=C2\CCCC3=C2NC(=S)NC3c2ccc(F)cc2)cc1` (stereo unspecified), the percent span is reported as “inactive”. With `CC(C)=C1C(=O)NN(c2ccc(C)c(Cl)c2)C1=O` the percent span was “inactive”. `COc1cc(C=Nc2cccc(C)c2)c(O)c([N+](=O)[O-])c1` was tested, and the percent span was “inactive”. With `CCN(CC)c1ccc(-c2nn3c(-c4cccnc4)nnc3s2)cc1` the percent span was “inactive”. `CN(C)c1ccc(C=C2C(=O)NC(=O)NC2=O)cc1[N+](=O)[O-]` was tested, and the percent span was “inactive”. In the case of `COc1cc(/C=C2/NC(=O)N(Cc3ccccc3F)C2=O)ccc1O`, the percent span is reported as “inactive”. `Cc1cc(N/C(=N/S(=O)(=O)c2cc(F)ccc2F)c2ccccc2)n(-c2ccccc2)n1` was tested, and the percent span was “inactive”. In the case of `COc1ccc2nc(NC(=O)c3ccc(-c4cccc([N+](=O)[O-])c4)o3)sc2c1`, the percent span is reported as “inactive”. `CC(=O)NC(=O)Nc1sc(=S)n(C)c1C` was tested, and the percent span was “inactive”. For `CCSc1ncc(Cl)c(C(=O)Nc2sc3c(c2C(=O)NCc2cccnc2)CCCC3)n1`, the percent span was “inactive”. For `O=C(C1CCC(Cn2c(=S)[nH]c3ccccc3c2=O)CC1)N1CCN(c2ccccn2)CC1` (stereo unspecified), the percent span was “inactive”. For `Cc1ccc(CC(=O)OCCNC(=O)c2cccnc2)cc1`, the percent span was “inactive”. For `CCN1/C(=C/c2ccc3cc(C)ccc3[n+]2CC)Sc2cc(C)c(C)cc21`, the percent span was “inactive”. In the case of `CC(=O)Nc1ccc(-n2cc(-c3ccccc3)[nH]c2=S)cc1`, the percent span is reported as “inactive”. For `CCOc1ccc(C2=Nn3c(nnc3-c3ccccn3)SC2)cc1`, the percent span was “inactive”. `Cc1nc2scc(-c3ccccc3)c2c(=O)n1N=C1C=CC(=O)C=C1` was tested, and the percent span was “inactive”. For `CCOC(=O)N1CCC(c2cc(=O)n(-c3ccccc3)[nH]2)CC1`, the percent span was “inactive”. For `CN(Cc1ccccc1)c1nc2c(c(=O)[nH]c(=O)n2C)n1C`, the percent span was “inactive”. In the case of `COc1cc(/C=C2\S/C(=N/S(=O)(=O)c3ccccc3)NC2=O)c([N+](=O)[O-])cc1OC`, the percent span is reported as “inactive”. For `Cc1nc(NC(=O)CC(C)C)sc1-c1csc(Nc2ccc(Cl)cc2)n1`, the percent span was “inactive”. For `CNCc1ccccc1Sc1cc(O)ccc1O`, the percent span was “inactive”. With `Oc1ccc(NCc2ccccc2OCc2ccccc2)cc1` the percent span was “inactive”.
